The subject of data set [1] is H9. Put plainly: Evaluated for the anti-HIV activity against HIV-1 replication in H9 lymphocyte cells. In kind it is functional, cell-based. Conditions: Homo sapiens.
The test system of data set [2] is H9. Put plainly: Evaluated for the anti-HIV activity against HIV-1 replication in mock-infected H9 cells. Conditions: Homo sapiens. In kind it is functional, cell-based.
Data set [3] in a line: Therapeutic Index (IC50/EC50) of the compound.
Data set [4] in a line: Therapeutic Index (IC50/EC50) of the compound; Toxic at all concentrations.
The test system of data set [5] is H9. As to the kind of experiment: Evaluated for the anti-HIV activity against HIV-1 replication in H9 lymphocyte cells; Toxic at all concentrations. Type of data set: functional, cell-based. Conditions: Homo sapiens.

In turn, `C=C(C)[C@@H]1CC[C@]2(COC(=O)C(C)(C)CC(=O)O)CC[C@]3(C)[C@H](CC[C@@H]4[C@@]5(C)CC[C@H](OC(=O)CC(C)(C)C(=O)O)C(C)(C)[C@@H]5CC[C@]43C)[C@@H]12` gave an EC50 in data set [1] of 0.00087 µM. In data set [2], this compound yielded a 50% inhibitory concentration (IC50) of 36.9 µM. Moreover, the selectivity ratio in data set [3] was determined as 42400.

In turn, `C=C(C)[C@@H]1CC[C@]2(COC(=O)C(C)(C)CC(=O)O)CC[C@]3(C)[C@H](CC[C@@H]4[C@@]5(C)CC[C@H](O)C(C)(C)[C@@H]5CC[C@]43C)[C@@H]12` displayed an EC50 in data set [1] of 0.18 µM. For the same compound, the half-inhibitory concentration (IC50) in data set [2] was 28.6 µM. Besides, the selectivity ratio in data set [3] was 159.

In data set [1], `C=C(C)[C@@H]1CC[C@]2(C(=O)O)CC[C@]3(C)[C@H](CC[C@@H]4[C@@]5(C)CC[C@H](OC(=O)CC(C)(C)C(=O)O)C(C)(C)[C@@H]5CC[C@]43C)[C@@H]12` [BEVIRIMAT] showed an EC50 of less than 0.00035 µM. In addition, the selectivity ratio in data set [3] is more than 20000.

In the case of `C=C(C)[C@@H]1CC[C@]2(COC(=O)CC(C)(C)C(=O)O)CC[C@]3(C)[C@H](CC[C@@H]4[C@@]5(C)CC[C@H](OC(=O)CC(C)(C)C(=O)O)C(C)(C)[C@@H]5CC[C@]43C)[C@@H]12`, it took 0.02 µM to reach a half-maximal effect in data set [1] (EC50). This compound displayed a half-inhibitory concentration (IC50) in data set [2] of 33.6 µM. Also, the selectivity ratio in data set [3] is 1680.

`C=C(C)[C@@H]1CC[C@]2(COC(=O)CC(C)(C)C(=O)O)CC[C@]3(C)[C@H](CC[C@@H]4[C@@]5(C)CC[C@H](OC(=O)C(C)(C)CC(=O)O)C(C)(C)[C@@H]5CC[C@]43C)[C@@H]12` displayed a concentration for a half-maximal effect (EC50) in data set [1] of 0.4 µM. Further, in data set [2], the IC50 is 38.6 µM. Besides, in data set [3], the selectivity ratio came to 96.5.

For the compound `C=C(C)[C@@H]1CC[C@]2(COC(=O)CC(C)(C)CC(=O)O)CC[C@]3(C)[C@H](CC[C@@H]4[C@@]5(C)CC[C@H](OC(=O)CC(C)(C)CC(=O)O)C(C)(C)[C@@H]5CC[C@]43C)[C@@H]12`, in data set [3], the selectivity ratio amounted to 21500.

For `C=C(C)[C@@H]1CC[C@]2(C(=O)O)CC[C@]3(C)[C@H](CC[C@@H]4[C@@]5(C)CC[C@H](OC(=O)COCC(=O)O)C(C)(C)[C@@H]5CC[C@]43C)[C@@H]12`, the selectivity ratio in data set [3] stood at 1170.

As to `C=C(C)[C@@H]1CC[C@]2(COC(=O)CC(C)(C)C(=O)O)CC[C@]3(C)[C@H](CC[C@@H]4[C@@]5(C)CC[C@H](O)C(C)(C)[C@@H]5CC[C@]43C)[C@@H]12`, the concentration giving a half-maximal response (EC50) in data set [1] is less than 0.18 µM. Half-maximal inhibition in data set [2] (IC50) required 37.4 µM. Also, in data set [3], the selectivity ratio is more than 207.

Take `C=C(C)[C@@H]1CC[C@]2(COC(=O)C(C)(C)CC(=O)O)CC[C@]3(C)[C@H](CC[C@@H]4[C@@]5(C)CC[C@H](OC(=O)C(C)(C)CC(=O)O)C(C)(C)[C@@H]5CC[C@]43C)[C@@H]12`: the Ratio result in data set [4] was “Toxic at all concentrations”. Also, the Activity entry in data set [5] was “Toxic at all concentrations”.
